Several values for one entry are separate records, joined by “and”; a condition that tells them apart may be missing. Equal entries are not always repeated. Toxic doses and inconclusive results are not listed.
System: BDF1 mice, intracerebral L1210 leukemia, survival T/C
Experiment: NCI In Vivo Anticancer Drug Screen. Data for tumor model L1210 Leukemia (intracerebral) in B6D2F1 (BDF1) mice
Conditions: higher = longer survival
How it was run: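 Tumour was transplanted, animals received compound or vehicle, then survival in each group was measured and treated divided by control.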

Compound: O=NN(CCCl)C(=O)N[C@@H]1CCCC[C@H]1O
- T/C (endpoint: mean survival time, dose: 12.0 mg/kg/injection, schedule: Q01DX001 (ip), vehicle: saline with Tween-80): 350 % of control
- T/C (endpoint: mean survival time, dose: 18.0 mg/kg/injection, schedule: Q01DX001 (ip), vehicle: saline with Tween-80): 463 % of control
- T/C (endpoint: mean survival time, dose: 26.0 mg/kg/injection, schedule: Q01DX001 (ip), vehicle: saline with Tween-80): 175 % of control

Compound: c1cc2n(n1)CCN2
- T/C (endpoint: median survival time, dose: 50.0 mg/kg/injection, schedule: Q01DX009 (ip), vehicle: water): 94 % of control
- T/C (endpoint: median survival time, dose: 100.0 mg/kg/injection, schedule: Q01DX009 (ip), vehicle: water): 106 % of control
- T/C (endpoint: median survival time, dose: 100.0 mg/kg/injection, schedule: Q04DX003 (ip), vehicle: water): 102 % of control
- T/C (endpoint: median survival time, dose: 200.0 mg/kg/injection, schedule: Q01DX009 (ip), vehicle: water): 107 % of control
- T/C (endpoint: median survival time, dose: 200.0 mg/kg/injection, schedule: Q04DX003 (ip), vehicle: water): 114 % of control
- T/C (endpoint: median survival time, dose: 300.0 mg/kg/injection, schedule: Q04DX003 (ip), vehicle: water): 116 % of control

Compound: CSc1ncnc2c1ncn2C1OC(CO)C(O)C1O (stereo not drawn)
- T/C (endpoint: mean survival time, dose: 25.0 mg/kg/injection, schedule: Q01DX Z (ip), vehicle: saline): 113 % of control
- T/C (endpoint: mean survival time, dose: 50.0 mg/kg/injection, schedule: Q01DX Z (ip), vehicle: saline): 92 % of control

Compound: CN(N=O)C(=O)NC(N)=O
- T/C (endpoint: mean survival time, dose: 33.0 mg/kg/injection, schedule: Q01DX001 (ip), vehicle: carboxymethylcellulose (CMC)): 102 % of control
- T/C (endpoint: mean survival time, dose: 50.0 mg/kg/injection, schedule: Q01DX001 (ip), vehicle: carboxymethylcellulose (CMC)): 105 % of control
- T/C (endpoint: mean survival time, dose: 75.0 mg/kg/injection, schedule: Q01DX001 (ip), vehicle: carboxymethylcellulose (CMC)): 114 % of control
- T/C (endpoint: mean survival time, dose: 112.0 mg/kg/injection, schedule: Q01DX001 (ip), vehicle: carboxymethylcellulose (CMC)): 115 % of control

Compound: COC12C(COC(N)=O)C3=C(C(=O)C(C)=C(N)C3=O)N1CC1C2N1C (stereo not drawn)
- T/C (endpoint: mean survival time, dose: 11.0 mg/kg/injection, schedule: Q01DX001 (ip), vehicle: carboxymethylcellulose (CMC)): 92 % of control
- T/C (endpoint: mean survival time, dose: 17.0 mg/kg/injection, schedule: Q01DX001 (ip), vehicle: carboxymethylcellulose (CMC)): 98 % of control
- T/C (endpoint: mean survival time, dose: 26.0 mg/kg/injection, schedule: Q01DX001 (ip), vehicle: carboxymethylcellulose (CMC)): 97 % of control

Compound: CCC(=O)NC1=C(N2CC2C)C(=O)C(NC(=O)CC)=C(N2CC2C)C1=O (stereo not drawn)
- T/C (endpoint: mean survival time, dose: 1.56 mg/kg/injection, schedule: Q01DX009 (ip), vehicle: Klucel (hydroxypropylcellulose) (HPC)): 96 % of control
- T/C (endpoint: mean survival time, dose: 3.12 mg/kg/injection, schedule: Q01DX009 (ip), vehicle: Klucel (hydroxypropylcellulose) (HPC)): 94 % of control
- T/C (endpoint: mean survival time, dose: 12.5 mg/kg/injection, schedule: Q01DX009 (ip), vehicle: Klucel (hydroxypropylcellulose) (HPC)): 122 % of control and 335 % of control
- T/C (endpoint: mean survival time, dose: 25.0 mg/kg/injection, schedule: Q01DX009 (ip), vehicle: Klucel (hydroxypropylcellulose) (HPC)): 101 % of control and 107 % of control

Compound: O=NN(CCCl)C(=O)NC1C=CCCC1 (stereo not drawn)
- T/C (endpoint: mean survival time, dose: 15.0 mg/kg/injection, schedule: Q01DX001 (ip), vehicle: other): 110 % of control
- T/C (endpoint: mean survival time, dose: 20.0 mg/kg/injection, schedule: Q01DX001 (ip), vehicle: other): 118 % of control
- T/C (endpoint: mean survival time, dose: 25.0 mg/kg/injection, schedule: Q01DX001 (ip), vehicle: other): 122 % of control
- T/C (endpoint: mean survival time, dose: 30.0 mg/kg/injection, schedule: Q01DX001 (ip), vehicle: other): 118 % of control
- T/C (endpoint: mean survival time, dose: 35.0 mg/kg/injection, schedule: Q01DX001 (ip), vehicle: other): 123 % of control

Compound: CC(C)(C)C1CCCC(NC(=O)N(CCCl)N=O)C1 (stereo not drawn)
- T/C (endpoint: mean survival time, dose: 187.0 mg/kg/injection, schedule: Q01DX001 (ip), vehicle: saline with Tween-80): 169 % of control

From PubChem BioAssay AID252 (DTP/NCI, 2004)
